Source: the supplement of paper PMC10307832

Columns and labels:
Assay in all cases: relative viability (nuclei count vs DMSO), 5 days (fraction); higher = more cells survive
NCI-H727 = test system: NCI-H727
In short: (§1)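 Relative viability is defined as nuclei in treated wells over nuclei in vehicle wells. Duplicate plates were run and medians reported. Lung cancer cell lines in 1536-well plates were dosed by pin tool one day after seeding, with one drug or with a fixed anchor-drug dose plus five library-drug doses (not always all listed) in √10 steps, and nuclei were counted after 5 days.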

PC-14 = test system: PC-14
In short: as §1

NCI-H1915 = test system: NCI-H1915
In short: as §1

HARA = test system: HARA
In short: as §1

NCI-H1734 = test system: NCI-H1734
In short: as §1

H3255 = test system: H3255
In short: as §1

ABC-1 = test system: ABC-1
In short: as §1

HCC-15 = test system: HCC-15
In short: as §1

LU99A = test system: LU99A
In short: as §1

NCI-H1437 = test system: NCI-H1437
In short: as §1

NCI-H460 = test system: NCI-H460
In short: as §1

NCI-H1666 = test system: NCI-H1666
In short: as §1

LC-2-ad = test system: LC-2-ad
In short: as §1

NCI-H1944 = test system: NCI-H1944
In short: as §1

SW 900 = test system: SW 900
In short: as §1

NCI-H1648 = test system: NCI-H1648
In short: as §1

COR-L 105 = test system: COR-L 105
In short: as §1

RERF-LC-KJ = test system: RERF-LC-KJ
In short: as §1

NCI-H650 = test system: NCI-H650
In short: as §1

NCI-H2347 = test system: NCI-H2347
In short: as §1

HCC-366 = test system: HCC-366
In short: as §1

CAL-12T = test system: CAL-12T
In short: as §1

NCI-H838 = test system: NCI-H838
In short: as §1

Oc1nc(-c2ccc(C(F)(F)F)cc2)nc2c1CSCC2 [XAV939] + CC(=O)c1c(C)c2cnc(Nc3ccc(N4CCNCC4)cn3)nc2n(C2CCCC2)c1=O [Palbociclib] (partner 0.5 µM)
relative viability (NCI-H727; first compound 0.08 µM): 0.711
relative viability (NCI-H727; first compound 0.8 µM): 0.642
relative viability (NCI-H727; first compound 2.53 µM): 0.644
relative viability (PC-14; first compound 0.08 µM): 0.723
relative viability (PC-14; first compound 0.253 µM): 0.47
relative viability (PC-14; first compound 0.8 µM): 0.451
relative viability (PC-14; first compound 2.53 µM): 0.375
relative viability (NCI-H1915; first compound 0.08 µM): 0.592
relative viability (NCI-H1915; first compound 0.253 µM): 0.54
relative viability (NCI-H1915; first compound 0.8 µM): 0.567
relative viability (NCI-H1915; first compound 2.53 µM): 0.511
relative viability (HARA; first compound 0.08 µM): 0.334
relative viability (HARA; first compound 0.253 µM): 0.22
relative viability (HARA; first compound 0.8 µM): 0.234
relative viability (HARA; first compound 2.53 µM): 0.242
relative viability (NCI-H1734; first compound 0.08 µM): 0.346
relative viability (NCI-H1734; first compound 0.253 µM): 0.3
relative viability (NCI-H1734; first compound 0.8 µM): 0.321
relative viability (NCI-H1734; first compound 2.53 µM): 0.357
relative viability (H3255; first compound 0.08 µM): 0.311
relative viability (H3255; first compound 0.253 µM): 0.317
relative viability (H3255; first compound 0.8 µM): 0.314
relative viability (H3255; first compound 2.53 µM): 0.291
relative viability (ABC-1; first compound 0.253 µM): 0.587
relative viability (ABC-1; first compound 0.8 µM): 0.578
relative viability (ABC-1; first compound 2.53 µM): 0.343
relative viability (HCC-15; first compound 0.08 µM): 0.709
relative viability (HCC-15; first compound 0.253 µM): 0.68
relative viability (HCC-15; first compound 0.8 µM): 0.721
relative viability (HCC-15; first compound 2.53 µM): 0.705
relative viability (LU99A; first compound 0.08 µM): 0.477
relative viability (LU99A; first compound 0.253 µM): 0.406
relative viability (LU99A; first compound 0.8 µM): 0.433
relative viability (LU99A; first compound 2.53 µM): 0.424
relative viability (NCI-H1437; first compound 0.08 µM): 0.32
relative viability (NCI-H1437; first compound 0.253 µM): 0.297
relative viability (NCI-H1437; first compound 0.8 µM): 0.301
relative viability (NCI-H1437; first compound 2.53 µM): 0.194
relative viability (NCI-H460; first compound 0.08 µM): 0.223
relative viability (NCI-H460; first compound 0.253 µM): 0.177
relative viability (NCI-H460; first compound 0.8 µM): 0.12
relative viability (NCI-H460; first compound 2.53 µM): 0.0927
relative viability (NCI-H1666; first compound 0.08 µM): 0.678
relative viability (NCI-H1666; first compound 0.253 µM): 0.552
relative viability (NCI-H1666; first compound 0.8 µM): 0.623
relative viability (NCI-H1666; first compound 2.53 µM): 0.64
relative viability (LC-2-ad; first compound 0.08 µM): 0.502
relative viability (LC-2-ad; first compound 0.253 µM): 0.397
relative viability (LC-2-ad; first compound 0.8 µM): 0.462
relative viability (LC-2-ad; first compound 2.53 µM): 0.478
relative viability (NCI-H1944; first compound 0.08 µM): 0.347
relative viability (NCI-H1944; first compound 0.253 µM): 0.337
relative viability (NCI-H1944; first compound 0.8 µM): 0.34
relative viability (NCI-H1944; first compound 2.53 µM): 0.267
relative viability (SW 900; first compound 0.253 µM): 0.539
relative viability (SW 900; first compound 0.8 µM): 0.56
relative viability (SW 900; first compound 2.53 µM): 0.285
relative viability (NCI-H1648; first compound 0.253 µM): 0.28
relative viability (NCI-H1648; first compound 0.8 µM): 0.27
relative viability (NCI-H1648; first compound 2.53 µM): 0.216
relative viability (COR-L 105; first compound 0.08 µM): 0.403
relative viability (COR-L 105; first compound 0.253 µM): 0.399
relative viability (COR-L 105; first compound 0.8 µM): 0.43
relative viability (COR-L 105; first compound 2.53 µM): 0.397
relative viability (RERF-LC-KJ; first compound 0.08 µM): 1.13
relative viability (RERF-LC-KJ; first compound 0.253 µM): 0.828
relative viability (RERF-LC-KJ; first compound 0.8 µM): 1.02
relative viability (RERF-LC-KJ; first compound 2.53 µM): 0.761
relative viability (NCI-H650; first compound 0.08 µM): 0.376
relative viability (NCI-H650; first compound 0.253 µM): 0.35
relative viability (NCI-H650; first compound 0.8 µM): 0.333
relative viability (NCI-H650; first compound 2.53 µM): 0.303
relative viability (NCI-H2347; first compound 0.08 µM): 0.403
relative viability (NCI-H2347; first compound 0.253 µM): 0.412
relative viability (NCI-H2347; first compound 0.8 µM): 0.435
relative viability (NCI-H2347; first compound 2.53 µM): 0.429
relative viability (HCC-366; first compound 0.08 µM): 0.444
relative viability (HCC-366; first compound 0.253 µM): 0.334
relative viability (HCC-366; first compound 0.8 µM): 0.352
relative viability (HCC-366; first compound 2.53 µM): 0.261
relative viability (CAL-12T; first compound 0.08 µM): 0.465
relative viability (CAL-12T; first compound 0.253 µM): 0.342
relative viability (CAL-12T; first compound 0.8 µM): 0.263
relative viability (CAL-12T; first compound 2.53 µM): 0.209
relative viability (NCI-H838; first compound 0.08 µM): 0.217
relative viability (NCI-H838; first compound 0.253 µM): 0.203
relative viability (NCI-H838; first compound 0.8 µM): 0.179
relative viability (NCI-H838; first compound 2.53 µM): 0.148
